From US20230241121A1, “COMPOSITIONS AND METHODS RELATING TO EXOSOMES DERIVED FROM HUMAN DERMAL PAPILLA CELLS” (NORTH CAROLINA STATE UNIVERSITY, priority 2020, published 2023) come the findings set out here.

One experiment concerns β-catenin. In words: Immunostaining of β-catenin in dorsal skin hair follicles ten days after treatment. It is filed as in vivo, C57BL/6 mice. To be noted: treated side, day 10.
The next experiment concerns CD133. In words: Immunostaining of CD133 in dorsal skin hair follicles ten days after treatment. The format is in vivo, C57BL/6 mice. To be noted: treated side, day 10.
The test system of the next experiment is Ki67. In words: Immunostaining of Ki67 in dorsal skin hair follicles ten days after treatment. The format is in vivo, C57BL/6 mice. To be noted: day 10.
In a further experiment the test system is depilated C57BL/6 mice. In words: Dorsal hair regrowth in depilated mice. The format is in vivo. From the text:
Animals and in vivo studies. Seven-week-old male C57BL/6 mice were purchased from Jackson laboratory and allowed to adapt to their new environment for 1 week. Hair was removed by using depilatory cream to observe the pink skin. Then, animals were randomly divided into groups (n=5) randomly to investigate hair regrowth. Minoxidil was topically applied daily as a positive control. Other treatments were given subcutaneously. All work with mice was in accordance with IACUC. Cell treatment dose: 1.0×10^6 cells in 200 μL PBS were subcutaneously injected into 10 spots (20 μL per site) on the left side of the dorsal skin. Exosome treatment dose: 2.0×10^9 exosomes in 200 μL PBS were subcutaneously injected to 10 spots (20 μL per site) on the left side of the backs. Negative control, miR-218-5p mimics and inhibitors (Sigma-Aldrich): administered according to the protocol provided by in vivo-jetPEI™ (Polyplus transfection). In brief, mice received ten injections per depilated dorsal skin. 400 ng miRNA mimic or inhibitor was dissolved in 90 μl 5% glucose (w/v) solution, and then 10 μl in vivo-jet PEI solution was added. Vortex-mix the solution immediately and incubate for 15 minutes at room temperature before injection. […]
The state of hair re-growth in depilated mice was photographed on days 0, 10, 15, and 20, and hair growth area was analyzed via morphological observation (FIGS. 3A-3D). […]

Source text for CD133: (§1) Animals and in vivo studies. Seven-week-old male C57BL/6 mice were purchased from Jackson laboratory and allowed to adapt to their new environment for 1 week. Hair was removed by using depilatory cream to observe the pink skin. Then, animals were randomly divided into groups (n=5) randomly to investigate hair regrowth. Minoxidil was topically applied daily as a positive control. Other treatments were given subcutaneously. All work with mice was in accordance with IACUC. Cell treatment dose: 1.0×10^6 cells in 200 μL PBS were subcutaneously injected into 10 spots (20 μL per site) on the left side of the dorsal skin. Exosome treatment dose: 2.0×10^9 exosomes in 200 μL PBS were subcutaneously injected to 10 spots (20 μL per site) on the left side of the backs. Negative control, miR-218-5p mimics and inhibitors (Sigma-Aldrich): administered according to the protocol provided by in vivo-jetPEI™ (Polyplus transfection). In brief, mice received ten injections per depilated dorsal skin. 400 ng miRNA mimic or inhibitor was dissolved in 90 μl 5% glucose (w/v) solution, and then 10 μl in vivo-jet PEI solution was added. Vortex-mix the solution immediately and incubate for 15 minutes at room temperature before injection. Control groups were injected with mimic control.
(§2) Skin tissue histology. Mice were euthanized and the whole dorsal skin was removed. […]
Source text for Ki67: as §1, §2
Source text for β-catenin: as §1, §2

With `Nc1cc(N2CCCCC2)nc(N)[n+]1[O-]` [5% minoxidil, minoxidil], the “expression of β-catenin (β-catenin positive cells)” value in the experiment on β-catenin came to 2.3%. Besides, the “expression of CD133 (CD133 positive cells)” value in the experiment on CD133 worked out at 7.2%. Further, the Ki67 signals with Ki67 (non-treated side) came to 7.1%; in the experiment with Ki67 (treated side) it was 37.2%. In addition, the fur coverage in the experiment with depilated C57BL/6 mice (day 15, treated side) amounted to 35%; in the experiment with depilated C57BL/6 mice (day 15, untreated side), 10%.
